What is called EC50 is the concentration giving half of the maximal effect.

This assay deals with HEK293T cells carrying the ATF4 luciferase reporter. The assay is described as follows: ATF4-Luc assay, in vitro model of Vanishing Cell White Matter Disease (VWMD). The settings on record: Homo sapiens, HEK-293T, 1 μg/mL tunicamycin, 7 hours, One Glo luminescence. It is filed as cell-based. The method in brief: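 Stable HEK293T line with human ATF4 5′-UTR–firefly luciferase reporter treated with 1 μg/mL tunicamycin plus 200 nM compound for 7 h. Luminescence read; EC50 derived.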
On to `O=C(COc1ccc(Cl)c(F)c1)NC12CCC(NC(=O)c3ccccn3)(CC1)C[C@@H]2O` [Compound 727, N-{(3S)-4-[2-(4-chloro-3-fluorophenoxy)acetamido]-3-hydroxybicyclo[2.2.2]octan-1-yl}pyridine-2-carboxamide], for which the EC50 was below 50 nM.

Consider `O=C(COc1ccc(Cl)c(F)c1)NC12CCC(NC(=O)c3ccc(C(F)(F)F)cn3)(CC1)C[C@@H]2O` [Compound 728, N-{(3S)-4-[2-(4-chloro-3-fluorophenoxy)acetamido]-3-hydroxybicyclo[2.2.2]octan-1-yl}-5-(trifluoromethyl)pyridine-2-carboxamide], for which the 50% effective concentration (EC50) is below 50 nM. To `Cc1ccc(C(=O)NC23CCC(NC(=O)COc4ccc(Cl)c(F)c4)(CC2)[C@@H](O)C3)nc1` [Compound 729, N-{(3S)-4-[2-(4-chloro-3-fluorophenoxy)acetamido]-3-hydroxybicyclo[2.2.2]octan-1-yl}-5-methylpyridine-2-carboxamide] belongs below 50 nM; to `O=C(COc1ccc(Cl)c(F)c1)NC12CCC(NC(=O)c3ccc(Cl)cn3)(CC1)C[C@@H]2O` [Compound 730, 5-chloro-N-{(3S)-4-[2-(4-chloro-3-fluorophenoxy)acetamido]-3-hydroxybicyclo[2.2.2]octan-1-yl}pyridine-2-carboxamide], 50 to 250 nM; to `O=C(COc1ccc(F)c(F)c1)NC12CC(Nc3cnc(-c4cccnc4)cn3)(C1)C2` [Compound 731, 2-(3,4-difluorophenoxy)-N-(3-{[5-(pyridin-3-yl)pyrazin-2-yl]amino}bicyclo[1.1.1]pentan-1-yl)acetamide], 1000 to 2000 nM.

In the case of `O=C(COc1ccc(Cl)c(F)c1)NC12CCC(NC(=O)c3cnccn3)(CC1)[C@@H](O)C2` [Compound 732, N-{(2S)-4-[2-(4-chloro-3-fluorophenoxy)acetamido]-2-hydroxybicyclo[2.2.2]octan-1-yl}pyrazine-2-carboxamide], the EC50 was in the range of 250 to 1000 nM. The same measure for `Cc1cnc(C(=O)NC23CCC(NC(=O)COc4ccc(Cl)c(F)c4)(CC2)C[C@@H]3O)cn1` [Compound 733, N-{(2S)-4-[2-(4-chloro-3-fluorophenoxy)acetamido]-2-hydroxybicyclo[2.2.2]octan-1-yl}-5-methylpyrazine-2-carboxamide]: above 2000 nM; for `Cc1cncc(C(=O)NC23CCC(NC(=O)COc4ccc(Cl)c(F)c4)(CC2)C[C@@H]3O)n1` [Compound 734, N-{(2S)-4-[2-(4-chloro-3-fluorophenoxy)acetamido]-2-hydroxybicyclo[2.2.2]octan-1-yl}-6-methylpyrazine-2-carboxamide]: below 50 nM; for `Cc1cnc(C(=O)NC23CCC(NC(=O)COc4ccc(Cl)c(Cl)c4)(CC2)[C@@H](O)C3)cn1` [Compound 735, N-{(3S)-4-[2-(3,4-dichlorophenoxy)acetamido]-3-hydroxybicyclo[2.2.2]octan-1-yl}-5-methylpyrazine-2-carboxamide]: below 50 nM. The same measure for `Cc1ccncc1C(=O)NC12CC(NC(=O)COc3ccc(Cl)c(Cl)c3)(C1)C2` [Compound 736, N-{3-[2-(3,4-dichlorophenoxy)acetamido]bicyclo[1.1.1]pentan-1-yl}-4-methylpyridine-3-carboxamide]: above 2000 nM; for `Cc1cncc(C(=O)NC23CC(NC(=O)COc4ccc(Cl)c(Cl)c4)(C2)C3)n1` [Compound 737, N-{3-[2-(3,4-dichlorophenoxy)acetamido]bicyclo[1.1.1]pentan-1-yl}-6-methylpyrazine-2-carboxamide]: 250 to 1000 nM.

On to `Cc1ccncc1C(=O)NC12CC(NC(=O)COc3ccc(Cl)c(F)c3)(C1)C2` [Compound 738, N-{3-[2-(4-chloro-3-fluorophenoxy)acetamido]bicyclo[1.1.1]pentan-1-yl}-4-methylpyridine-3-carboxamide], for which the EC50 was above 2000 nM. To `Cc1cccnc1C(=O)NC12CC(NC(=O)COc3ccc(Cl)c(Cl)c3)(C1)C2` [Compound 739, N-{3-[2-(3,4-dichlorophenoxy)acetamido]bicyclo[1.1.1]pentan-1-yl}-3-methylpyridine-2-carboxamide] belongs above 2000 nM. To `O=C(COc1ccc(Cl)c(Cl)c1)NC12CC(NC(=O)c3cnc(-c4ccccc4)o3)(C1)C2` [Compound 740, N-{3-[2-(3,4-dichlorophenoxy)acetamido]bicyclo[1.1.1]pentan-1-yl}-2-phenyl-1,3-oxazole-5-carboxamide] belongs below 50 nM. To `O=C(COc1ccc(Cl)c(F)c1)NC12CC(NC(=O)c3ccnc(CO)c3)(C1)C2` [Compound 741, N-{3-[2-(4-chloro-3-fluorophenoxy)acetamido]bicyclo[1.1.1]pentan-1-yl}-2-(hydroxymethyl)pyridine-4-carboxamide] belongs above 2000 nM; to `O=C(COc1ccc2c(c1)OC(F)(F)O2)NC12CC(NC(=O)c3cnc(-c4ccccc4)o3)(C1)C2` [Compound 742, N-(3-{2-[(2,2-difluoro-2H-1,3-benzodioxol-5-yl)oxy]acetamido}bicyclo[1.1.1]pentan-1-yl)-2-phenyl-1,3-oxazole-5-carboxamide], below 50 nM.

Turning to `O=C(COc1ccc(F)c(F)c1)NC12CC(Nc3cncc(-c4cccnc4)n3)(C1)C2` [Compound 743, 2-(3,4-difluorophenoxy)-N-(3-{[6-(pyridin-3-yl)pyrazin-2-yl]amino}bicyclo[1.1.1]pentan-1-yl)acetamide], the EC50 was above 2000 nM. To `O=C(COc1ccc(Cl)c(F)c1)NC12CC(Nc3cncc(N4CCOCC4)n3)(C1)C2` [Compound 744, 2-(4-chloro-3-fluorophenoxy)-N-(3-{[6-(morpholin-4-yl)pyrazin-2-yl]amino}bicyclo[1.1.1]pentan-1-yl)acetamide] belongs 250 to 1000 nM. To `N#Cc1cncc(NC23CC(NC(=O)COc4ccc(Cl)c(F)c4)(C2)C3)n1` [Compound 745, 2-(4-chloro-3-fluorophenoxy)-N-{3-[(6-cyanopyrazin-2-yl)amino]bicyclo[1.1.1]pentan-1-yl}acetamide] belongs above 2000 nM. To `O=C(COc1ccc(Cl)c(F)c1)NC12CC(NC(=O)c3cnc4[nH]ccc4c3)(C1)C2` [Compound 746, N-{3-[2-(4-chloro-3-fluorophenoxy)acetamido]bicyclo[1.1.1]pentan-1-yl}-1H-pyrrolo[2,3-b]pyridine-5-carboxamide] belongs 50 to 250 nM; to `O=C(COc1ccc(Cl)c(F)c1)NC12CC(Nc3cncc(C(F)(F)F)n3)(C1)C2` [Compound 747, 2-(4-chloro-3-fluorophenoxy)-N-(3-{[6-(trifluoromethyl)pyrazin-2-yl]amino}bicyclo[1.1.1]pentan-1-yl)acetamide], above 2000 nM; to `Cc1cc2ncc(C(=O)NC34CC(NC(=O)COc5ccc(Cl)c(F)c5)(C3)C4)cn2n1` [Compound 748, N-{3-[2-(4-chloro-3-fluorophenoxy)acetamido]bicyclo[1.1.1]pentan-1-yl}-2-methylpyrazolo[1,5-a]pyrimidine-6-carboxamide], 250 to 1000 nM.

For the molecule `O=C(COc1ccc(Cl)c(F)c1)NC12CC(NC(=O)c3ncc4ccccc4n3)(C1)C2` [Compound 749, N-{3-[2-(4-chloro-3-fluorophenoxy)acetamido]bicyclo[1.1.1]pentan-1-yl}quinazoline-2-carboxamide], the EC50 was in the range of 50 to 250 nM. With `Cc1cc(C)n2nc(C(=O)NC34CCC(NC(=O)COc5ccc(Cl)c(F)c5)(CC3)[C@@H](O)C4)nc2n1` [Compound 750, N-{(3S)-4-[2-(4-chloro-3-fluorophenoxy)acetamido]-3-hydroxybicyclo[2.2.2]octan-1-yl}-5,7-dimethyl[1,2,4]triazolo[1,5-a]pyrimidine-2-carboxamide], the EC50 is above 2000 nM. To `O=C(COc1ccc(Cl)c(F)c1)NC12CCC(NC(=O)c3csc(C4CC4)n3)(CC1)C[C@@H]2O` [Compound 751, N-{(3S)-4-[2-(4-chloro-3-fluorophenoxy)acetamido]-3-hydroxybicyclo[2.2.2]octan-1-yl}-2-cyclopropyl-1,3-thiazole-4-carboxamide] belongs below 50 nM. To `O=C(COc1ccc(Cl)c(F)c1)NC12CCC(NC(=O)c3ccc(C(F)F)cn3)(CC1)C[C@@H]2O` [Compound 752, N-{(3S)-4-[2-(4-chloro-3-fluorophenoxy)acetamido]-3-hydroxybicyclo[2.2.2]octan-1-yl}-5-(difluoromethyl)pyridine-2-carboxamide] belongs below 50 nM; to `O=C(COc1ccc(Cl)c(F)c1)NC12CCC(NC(=O)c3ccc(CO)cn3)(CC1)C[C@@H]2O` [Compound 753, N-{(3S)-4-[2-(4-chloro-3-fluorophenoxy)acetamido]-3-hydroxybicyclo[2.2.2]octan-1-yl}-5-(hydroxymethyl)pyridine-2-carboxamide], 250 to 1000 nM; to `CCc1ccc(C(=O)NC23CCC(NC(=O)COc4ccc(Cl)c(F)c4)(CC2)[C@@H](O)C3)nc1` [Compound 754, N-{(3S)-4-[2-(4-chloro-3-fluorophenoxy)acetamido]-3-hydroxybicyclo[2.2.2]octan-1-yl}-5-ethylpyridine-2-carboxamide], below 50 nM. As to `O=C(COc1ccc(Cl)c(F)c1)NC12CC(Nc3cnc(C(F)(F)F)nc3)(C1)C2` [Compound 755, 2-(4-chloro-3-fluorophenoxy)-N-(3-{[2-(trifluoromethyl)pyrimidin-5-yl]amino}bicyclo[1.1.1]pentan-1-yl)acetamide], the EC50 lay in the range of 250 to 1000 nM. To `COc1cncc(NC23CC(NC(=O)COc4ccc(Cl)c(F)c4)(C2)C3)n1` [Compound 756, 2-(4-chloro-3-fluorophenoxy)-N-{3-[(6-methoxypyrazin-2-yl)amino]bicyclo[1.1.1]pentan-1-yl}acetamide] belongs 250 to 1000 nM; to `O=C(COc1ccc(Cl)c(F)c1)NC12CC(Nc3cc(C(F)(F)F)ccn3)(C1)C2` [Compound 757, 2-(4-chloro-3-fluorophenoxy)-N-(3-{[4-(trifluoromethyl)pyridin-2-yl]amino}bicyclo[1.1.1]pentan-1-yl)acetamide], above 2000 nM.
